Data: patent EP0908457B1, “3-(1,2-benzisothiazol- and isoxazol-5-Y1)-2,4(1H,3H)-pyrimidinedione or thione and 3-(1,2-benzisothiazol- and isoxazol-5-y1)-4(3H)-pyrimidinone or thione herbicidal agents” (BASF AKTIENGESELLSCHAFT, priority 1997, dated 1999)

Experiments:
[1] = system: Cyperus serotinus, Rottb.; experiment: Postemergence weed control under flooded paddy conditions, CYPSE (Flatsedge); assay type: in vivo; details: rated three to four weeks after treatment
[2] = system: Oryza sativa, (L.) Tebonnet; experiment: Rice tolerance to post-transplant applications under flooded paddy conditions (Example 187), ORYSAT (Rice, Tebonnet); details: rated three to four weeks after treatment
[3] = system: Echinochloa oryzoides (Ard.) Fritsch.; experiment: Preemergence weed control under flooded paddy conditions, ECHORC (Watergrass (Calif.)); assay type: in vivo; details: preemergence, flooded paddy, rated three to four weeks after treatment
[4] = system: Sagittaria pygmaea, L.; experiment: Preemergence weed control under flooded paddy conditions, SAGPY (Arrowhead (Pygmaea)); assay type: in vivo; details: preemergence, flooded paddy, rated three to four weeks after treatment
[5] = system: Oryza sativa, (L.) Tebonnet; experiment: Rice tolerance to post-transplant applications under flooded paddy conditions (Example 188), ORYSAT (Rice, Tebonnet); details: rated three to four weeks after treatment
[6] = system: Monochoria vaginalis, Presl.; experiment: Postemergence weed control under flooded paddy conditions, MOOVA (Monochoria); assay type: in vivo; details: rated three to four weeks after treatment
[7] = system: Cyperus iria; experiment: Preemergence weed control under flooded paddy conditions, CYPIR (Rice Flatsedge); assay type: in vivo; details: preemergence, flooded paddy, rated three to four weeks after treatment
[8] = system: Sagittaria pygmaea, L.; experiment: Postemergence weed control under flooded paddy conditions, SAGPY (Arrowhead (Pygmaea)); assay type: in vivo; details: rated three to four weeks after treatment
[9] = system: Monochoria vaginalis, Presl.; experiment: Preemergence weed control under flooded paddy conditions, MOOVA (Monochoria); assay type: in vivo; details: preemergence, flooded paddy, rated three to four weeks after treatment
[10] = system: Echinochloa oryzoides (Ard.) Fritsch.; experiment: Postemergence weed control under flooded paddy conditions, ECHORC (Watergrass (Calif.)); assay type: in vivo; details: rated three to four weeks after treatment
[11] = system: Cyperus iria; experiment: Postemergence weed control under flooded paddy conditions, CYPIR (Rice Flatsedge); assay type: in vivo; details: rated three to four weeks after treatment
[12] = system: Cyperus serotinus, Rottb.; experiment: Preemergence weed control under flooded paddy conditions, CYPSE (Flatsedge); assay type: in vivo; details: preemergence, rated three to four weeks after treatment

COC(=O)COc1ccc(C)cc1-c1noc2ccc(-n3c(=O)cc(C(F)(F)F)n(C)c3=O)c(Cl)c12 [Example 261, Acetic acid, {{2-{4-chloro-5-[3,6-dihydro-3-methyl-2,6-dioxo-4-(trifluoromethyl)-1(2H)-pyrimidinyl]-1,2-benzisoxazol-3-yl}-p-tolyl}oxy}-, methyl ester]
herbicidal effect rating, CYPSE ([1]; Rate 0.0320 kg/ha): 0.0 | herbicidal effect rating, CYPSE ([1]; Rate 0.0620 kg/ha): 0.0 | herbicidal effect rating, CYPSE ([1]; Rate 0.1250 kg/ha): 0.0 | herbicidal effect rating, CYPSE ([1]; Rate 0.2500 kg/ha): 0.0 | ORYSAT herbicidal effect rating ([2]; Rate 0.0320 kg/ha): 0.0 | ORYSAT herbicidal effect rating ([2]; Rate 0.0620 kg/ha): 0.0 | ORYSAT herbicidal effect rating ([2]; Rate 0.1250 kg/ha): 0.0 | ORYSAT herbicidal effect rating ([2]; Rate 0.2500 kg/ha): 0.0 | ECHORC herbicidal effect rating ([3]; Rate 0.0320 kg/ha): 2.5 | ECHORC herbicidal effect rating ([3]; Rate 0.0620 kg/ha): 2.0 | ECHORC herbicidal effect rating ([3]; Rate 0.1250 kg/ha): 2.0 | ECHORC herbicidal effect rating ([3]; Rate 0.2500 kg/ha): 0.0 | SAGPY herbicidal effect rating ([4]; Rate 0.0320 kg/ha): 0.0 | SAGPY herbicidal effect rating ([4]; Rate 0.0620 kg/ha): 0.0 | SAGPY herbicidal effect rating ([4]; Rate 0.1250 kg/ha): 0.0 | SAGPY herbicidal effect rating ([4]; Rate 0.2500 kg/ha): 0.0 | herbicidal effect rating, ORYSAT (rice tolerance) ([5]; Rate 0.0320 kg/ha): 0.0 | herbicidal effect rating, ORYSAT (rice tolerance) ([5]; Rate 0.0620 kg/ha): 0.0 | herbicidal effect rating, ORYSAT (rice tolerance) ([5]; Rate 0.1250 kg/ha): 0.0 | herbicidal effect rating, ORYSAT (rice tolerance) ([5]; Rate 0.2500 kg/ha): 0.0 | herbicidal effect rating, MOOVA ([6]; Rate 0.0320 kg/ha): 9.0 | herbicidal effect rating, MOOVA ([6]; Rate 0.0620 kg/ha): 9.0 | herbicidal effect rating, MOOVA ([6]; Rate 0.1250 kg/ha): 9.0 | herbicidal effect rating, MOOVA ([6]; Rate 0.2500 kg/ha): 9.0 | CYPIR herbicidal effect rating ([7]; Rate 0.0320 kg/ha): 4.0 | CYPIR herbicidal effect rating ([7]; Rate 0.0620 kg/ha): 4.5 | CYPIR herbicidal effect rating ([7]; Rate 0.1250 kg/ha): 5.5 | CYPIR herbicidal effect rating ([7]; Rate 0.2500 kg/ha): 2.0 | herbicidal effect rating, SAGPY ([8]; Rate 0.0320 kg/ha): 0.0 | herbicidal effect rating, SAGPY ([8]; Rate 0.0620 kg/ha): 0.0 | herbicidal effect rating, SAGPY ([8]; Rate 0.1250 kg/ha): 0.0 | herbicidal effect rating, SAGPY ([8]; Rate 0.2500 kg/ha): 0.0 | MOOVA herbicidal effect rating ([9]; Rate 0.0320 kg/ha): 4.5 | MOOVA herbicidal effect rating ([9]; Rate 0.0620 kg/ha): 4.5 | MOOVA herbicidal effect rating ([9]; Rate 0.1250 kg/ha): 6.0 | MOOVA herbicidal effect rating ([9]; Rate 0.2500 kg/ha): 3.0 | herbicidal effect rating, ECHORC ([10]; Rate 0.0320 kg/ha): 0.0 | herbicidal effect rating, ECHORC ([10]; Rate 0.0620 kg/ha): 0.0 | herbicidal effect rating, ECHORC ([10]; Rate 0.1250 kg/ha): 0.0 | herbicidal effect rating, ECHORC ([10]; Rate 0.2500 kg/ha): 0.0 | herbicidal effect rating, CYPIR ([11]; Rate 0.0320 kg/ha): 5.0 | herbicidal effect rating, CYPIR ([11]; Rate 0.0620 kg/ha): 6.0 | herbicidal effect rating, CYPIR ([11]; Rate 0.1250 kg/ha): 6.0 | herbicidal effect rating, CYPIR ([11]; Rate 0.2500 kg/ha): 6.0 | CYPSE herbicidal effect rating ([12]; Rate 0.0320 kg/ha): 4.5 | CYPSE herbicidal effect rating ([12]; Rate 0.0620 kg/ha): 4.5 | CYPSE herbicidal effect rating ([12]; Rate 0.1250 kg/ha): 4.5 | CYPSE herbicidal effect rating ([12]; Rate 0.2500 kg/ha): 0.0

COc1c(-c2nsc3ccc(-n4c(=O)cc(C(F)(F)F)n(C)c4=O)cc23)ccc(C)c1C [Example 267, 2,4(1H,3H)-Pyrimidinedione, 3-[3-(2-methoxy-3,4-xylyl)-1,2-benzisothiazol-5-yl]-1-methyl-6-(trifluoromethyl)-]
herbicidal effect rating, CYPSE ([1]; Rate 0.0320 kg/ha): 0.0 | herbicidal effect rating, CYPSE ([1]; Rate 0.0620 kg/ha): 0.0 | herbicidal effect rating, CYPSE ([1]; Rate 0.1250 kg/ha): 0.0 | herbicidal effect rating, CYPSE ([1]; Rate 0.2500 kg/ha): 0.0 | ORYSAT herbicidal effect rating ([2]; Rate 0.0320 kg/ha): 2.0 | ORYSAT herbicidal effect rating ([2]; Rate 0.0620 kg/ha): 3.0 | ORYSAT herbicidal effect rating ([2]; Rate 0.1250 kg/ha): 4.5 | ORYSAT herbicidal effect rating ([2]; Rate 0.2500 kg/ha): 6.0 | ECHORC herbicidal effect rating ([3]; Rate 0.0320 kg/ha): 9.0 | ECHORC herbicidal effect rating ([3]; Rate 0.0620 kg/ha): 9.0 | ECHORC herbicidal effect rating ([3]; Rate 0.1250 kg/ha): 9.0 | ECHORC herbicidal effect rating ([3]; Rate 0.2500 kg/ha): 9.0 | SAGPY herbicidal effect rating ([4]; Rate 0.0320 kg/ha): 0.0 | SAGPY herbicidal effect rating ([4]; Rate 0.0620 kg/ha): 1.0 | SAGPY herbicidal effect rating ([4]; Rate 0.1250 kg/ha): 3.0 | SAGPY herbicidal effect rating ([4]; Rate 0.2500 kg/ha): 5.0 | herbicidal effect rating, ORYSAT (rice tolerance) ([5]; Rate 0.0320 kg/ha): 2.0 | herbicidal effect rating, ORYSAT (rice tolerance) ([5]; Rate 0.0620 kg/ha): 5.0 | herbicidal effect rating, ORYSAT (rice tolerance) ([5]; Rate 0.1250 kg/ha): 6.0 | herbicidal effect rating, ORYSAT (rice tolerance) ([5]; Rate 0.2500 kg/ha): 7.0 | herbicidal effect rating, MOOVA ([6]; Rate 0.0320 kg/ha): 9.0 | herbicidal effect rating, MOOVA ([6]; Rate 0.0620 kg/ha): 9.0 | herbicidal effect rating, MOOVA ([6]; Rate 0.1250 kg/ha): 9.0 | herbicidal effect rating, MOOVA ([6]; Rate 0.2500 kg/ha): 9.0 | CYPIR herbicidal effect rating ([7]; Rate 0.0320 kg/ha): 8.0 | CYPIR herbicidal effect rating ([7]; Rate 0.0620 kg/ha): 8.0 | CYPIR herbicidal effect rating ([7]; Rate 0.1250 kg/ha): 9.0 | CYPIR herbicidal effect rating ([7]; Rate 0.2500 kg/ha): 9.0 | herbicidal effect rating, SAGPY ([8]; Rate 0.0320 kg/ha): 0.0 | herbicidal effect rating, SAGPY ([8]; Rate 0.0620 kg/ha): 0.0 | herbicidal effect rating, SAGPY ([8]; Rate 0.1250 kg/ha): 0.0 | herbicidal effect rating, SAGPY ([8]; Rate 0.2500 kg/ha): 0.0 | MOOVA herbicidal effect rating ([9]; Rate 0.0320 kg/ha): 7.5 | MOOVA herbicidal effect rating ([9]; Rate 0.0620 kg/ha): 9.0 | MOOVA herbicidal effect rating ([9]; Rate 0.1250 kg/ha): 9.0 | MOOVA herbicidal effect rating ([9]; Rate 0.2500 kg/ha): 9.0 | herbicidal effect rating, ECHORC ([10]; Rate 0.0320 kg/ha): 4.0 | herbicidal effect rating, ECHORC ([10]; Rate 0.0620 kg/ha): 8.0 | herbicidal effect rating, ECHORC ([10]; Rate 0.1250 kg/ha): 9.0 | herbicidal effect rating, ECHORC ([10]; Rate 0.2500 kg/ha): 9.0 | herbicidal effect rating, CYPIR ([11]; Rate 0.0320 kg/ha): 9.0 | herbicidal effect rating, CYPIR ([11]; Rate 0.0620 kg/ha): 9.0 | herbicidal effect rating, CYPIR ([11]; Rate 0.1250 kg/ha): 9.0 | herbicidal effect rating, CYPIR ([11]; Rate 0.2500 kg/ha): 9.0 | CYPSE herbicidal effect rating ([12]; Rate 0.0320 kg/ha): 0.0 | CYPSE herbicidal effect rating ([12]; Rate 0.0620 kg/ha): 0.0 | CYPSE herbicidal effect rating ([12]; Rate 0.1250 kg/ha): 5.5 | CYPSE herbicidal effect rating ([12]; Rate 0.2500 kg/ha): 9.0
